Here are results for 8 molecules from PubChem BioAssay (NCI).

Where “and” joins values, the source holds several entries; their conditions need not be identical. Equal values may be shown once.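 Step 1: Grow cells in 96-well plates. Step 2: Expose to compound for 48 hours at 5 concentrations. Step 3: Interpolate endpoints linearly; if unreached, use highest concentration. At the GI50, growth is halved. TGI denotes the concentration required for complete inhibition of growth.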

Common to all, as to test: inhibition of tumour cell growth, NCI panel, 48 h
Experiment [1] deals with NCI-H460 lung.
Experiment [2] relates to OVCAR-4 ovarian.
The test system of experiment [3] is RXF 393 renal.
In experiment [4] the test system is TK-10 renal.
Experiment [5] deals with ACHN renal.
In experiment [6] the test system is MDA-MB-231 breast.
Experiment [7] relates to 786-0 renal.
For experiment [8], the system named is NCI-H23 lung.
The subject of experiment [9] is CCRF-CEM leukemia.
Experiment [10] relates to SNB-19 CNS.

`CCN(Cc1ccc(F)cc1)c1ccc(CO)c(OC)c1`: the GI50 was 23.2 µM in experiment [1]; 7.02 µM in experiment [2]; 9.44 µM in [3]; 2.14 µM in [4]; 17.1 µM in experiment [5]; 23.1 µM in experiment [6]. Also, the GI50 in [7] is 21.4 µM; in experiment [8], 23.3 µM; in [9] it was 21.2 µM; in experiment [10] it was 43.7 µM. In addition, the TGI was more than 100 µM in experiment [1]; 20.6 µM in experiment [2]; 23.6 µM in experiment [3]; 16.8 µM in [4]; 53.7 µM in experiment [5]; more than 88.5 µM in [6]. In addition, the TGI is 65.1 µM in [7], more than 100 µM in [8], 72 µM in [9] and more than 100 µM in experiment [10].
On to `N#CC1C(=O)NC(c2ccccc2[N+](=O)[O-])c2sc3c(F)cccc3c21` (stereo not given), for which the GI50 in experiment [1] was 0.28 µM; in [2] it was 1.5 µM; in experiment [3], 13.4 µM; in experiment [4], 11.5 µM; in experiment [5], 15.7 µM; in experiment [6] it was 8.53 µM. Moreover, the GI50 in [7] was 33 µM; in experiment [8], 8.78 µM; in experiment [9], 21.6 µM; in experiment [10], 22.1 µM. In addition, the TGI in [1] is 4.58 µM; in experiment [2], 44.7 µM; in experiment [3] it was 56.9 µM; in [4], 60.6 µM; in experiment [5] it was more than 100 µM; in experiment [6] it was 54.8 µM. Besides, the TGI in [7] is more than 100 µM; in experiment [8], 45 µM; in [9], more than 87.4 µM; in experiment [10], more than 100 µM.
For the molecule `C[CH2][Sn]([CH2]C)([O]C(=O)c1ccc(OC)c(OC)c1OC)[O]C(=O)c1ccc(OC)c(OC)c1OC`, the GI50 in [1] was more than 100 µM; in experiment [2] it was more than 82.6 µM; in experiment [3], 14.4 µM; in experiment [4] it was 52.6 µM; in [5], 51.4 µM; in experiment [6], 59.1 µM. Also, the GI50 was 58.6 µM in experiment [7], 33 µM in experiment [8], 13.9 µM in experiment [9] and 53.5 µM in experiment [10]. Moreover, the TGI is more than 100 µM in experiment [1]; more than 100 µM in experiment [2]; 30.6 µM in [3]; more than 68.2 µM in experiment [4]; more than 78.9 µM in experiment [5]; more than 100 µM in experiment [6]. The TGI is more than 100 µM in [7], more than 67.1 µM in experiment [8], 56.8 µM in experiment [9] and more than 67.5 µM in experiment [10].
Turning to `COC1=CC(=O)c2nc(Cl)ccc2C1=O`, the GI50 in [1] is 14 µM; in experiment [2], 1.5 µM; in experiment [3] it was 1.58 µM; in experiment [4], 2.09 µM; in experiment [5], 1.67 µM; in experiment [6], 1.84 µM. The GI50 in experiment [7] is 2.02 µM; in experiment [8], 1.59 µM; in [9], 2.23 µM; in [10], 13.7 µM. The TGI in experiment [1] came to 29.3 µM; in [2], 2.83 µM; in [3] it was 2.97 µM; in experiment [4] it was 4.23 µM; in experiment [5] it was 3.04 µM; in experiment [6], 6.44 µM. Also, the TGI was 3.76 µM in [7], 3.33 µM in [8], more than 100 µM in experiment [9] and 28 µM in experiment [10].
Turning to `COc1ccc(N(C)c2nc(Cl)nc3cnn(C)c23)cc1`, the GI50 is less than 0.01 µM in experiment [1]; 0.0795 µM in [2]; less than 0.01 µM in experiment [3]; more than 68.6 µM in [4]; less than 0.0145 µM in experiment [5]; 0.0262 µM in experiment [6]. In addition, the GI50 in experiment [7] is less than 0.01 µM; in experiment [8] it was less than 0.0251 µM; in experiment [9], less than 0.0146 µM; in experiment [10], less than 0.0131 µM. In addition, the TGI in experiment [1], in experiment [2], in experiment [3], in [4], in experiment [5] and in experiment [6] was more than 100 µM in each case. The TGI in experiment [7], in experiment [8], in [9] and in experiment [10] was more than 100 µM throughout.
As to `COc1cc(/C=C/C(=O)c2c(C)nc3ccccc3c2C)ccc1OCCCN1CCN(C(=O)c2ccco2)CC1`, the GI50 is 8.91 µM in [1]; 8.85 µM in experiment [2]; 2.8 µM in experiment [3]; 15.3 µM in [4]; 10.2 µM in experiment [5]; 7.22 µM in experiment [6]. Also, the GI50 in experiment [7] was 7.83 µM; in [8], 6.39 µM; in experiment [9], 3 µM; in experiment [10] it was 11.9 µM. Besides, the TGI in [1] was 21.7 µM; in experiment [2] it was more than 100 µM; in [3], 10.2 µM; in experiment [4], 30 µM; in experiment [5], 25.1 µM; in experiment [6], 29.9 µM. Further, the TGI stood at 20.5 µM in experiment [7], 24.7 µM in [8], 17.9 µM in [9] and 31.1 µM in experiment [10].
As for `C/C(=N/Nc1nc(C)cc(=O)[nH]1)C(=O)O`, the TGI in experiment [1], in experiment [2], in experiment [3], in [4], in experiment [5] and in experiment [6] was more than 100 µM in each case. For the same molecule, the TGI in experiment [7], in experiment [8], in experiment [9] and in experiment [10] was more than 100 µM in each case.
In the case of `Cc1ccc(OCC2OC(n3cnc4c(Br)nc(Br)nc43)CC2Oc2ccc(C)cc2)cc1` (stereo not given), the GI50 was 1.86 µM and 10.7 µM in [1]; 1.56 µM in [2]; 13.3 µM in experiment [3]; 14.4 µM in experiment [4]; 5.29 µM in experiment [5]; 1.74 µM in experiment [6]. Further, the GI50 was 1.57 µM in [7], 6.1 µM in experiment [8], 1.8 µM in [9] and 11.8 µM in experiment [10]. The TGI is 6.07 µM and 28 µM in experiment [1]; 4.84 µM and 7.55 µM in experiment [2]; 28.2 µM and 22.4 µM in [3]; 28.4 µM and > 54.3 µM in experiment [4]; 14.8 µM and 4.93 µM in experiment [5]; 5.27 µM and 4.34 µM in experiment [6]. In addition, the TGI was 3.48 µM and 9.92 µM in experiment [7]; 16.7 µM and 15.4 µM in experiment [8]; 3.44 µM and > 25.5 µM in experiment [9]; 22.9 µM and 17.8 µM in experiment [10].
